In PubChem BioAssay AID1996:
≈ marks a conversion by molar mass, not a printed value.

Conditions: buffer; pH 7.4; 200.0 µM

Row | Structure (SMILES) | solubility kinetic [µg/mL]
1 | CN1CCN(S(=O)(=O)c2cccc(C(=O)O)c2)CC1 | 42 (≈ 148 µM)
2 | O=C(COC(=O)CCc1ccccc1)NCc1ccc2c(c1)OCO2 | > 51.2
3 | O=C(NC1CC2CCCC(C1)N2C(=O)Nc1ccccc1Cl)C1CC1 (stereo unspecified) | > 54.3
4 | Cc1cccc(CNCCc2c[nH]c3ccccc23)c1.O=C(O)C(=O)O | > 53.2
5 | O=C(O)c1ccc(S(=O)(=O)NCC2CCCCC2)cc1 | > 44.6
6 | Cc1ccc2c(c1)C(=O)C(=O)N2CC1COc2ccccc2O1 (stereo unspecified) | 19.5 (≈ 63 µM)
7 | CCOC(=O)/C(C#N)=C/Nc1cc(C(C)(C)C)sc1C(C)=O | < 0.3
8 | CN1CCN(C(=O)CNC(=O)C23CC4CC(CC(C4)C2)C3)CC1 | > 47.9
9 | COc1ccc(-n2c(=S)[nH]c3sc4c(c3c2=O)CCc2ccccc2-4)cc1 | 1.4 (≈ 3.57 µM)
10 | Cc1ccc(OCCn2ccnc2)c(C)c1 | 22.8 (≈ 105 µM)
11 | CC(C)(C)c1ccc(Oc2ncccc2NC(=O)c2cccs2)cc1 | < 0.4
12 | COc1ccc(Br)c(C(=O)NC(C)(C)CO)c1 | > 45.3
13 | O=C1CCC(=O)N1OCCOc1ccc(Cl)c2ccccc12 | 5.3 (≈ 16.6 µM)
14 | O=C(Nc1nc2ccccc2[nH]1)c1ccccc1[N+](=O)[O-] | > 42.3
15 | COc1ccccc1NS(=O)(=O)c1cccc(NS(=O)(=O)c2ccc(Cl)c(C(=O)O)c2)c1 | > 74.5
16 | O=C(NCC1CCCCC1)c1ccccc1[N+](=O)[O-] | > 39.3
17 | O=C(COC(=O)c1cc(Cl)ccc1Cl)NC1CCCC1 | 23.8 (≈ 75.3 µM)
18 | C/C(=N\NC(=O)c1ccn(C)n1)c1ccco1 | > 34.8
19 | CCC(CC)N1CCN(C(=O)c2cc(OC)c(OC)c(OC)c2)CC1 | > 52.6
20 | O=C(NCCCNC(=O)c1ccccc1Cl)c1cnccn1 | 43.5 (≈ 136 µM)
21 | CCCC[N+]12CCC(CC1)C(Cc1ccccc1)C2.[Br-] (stereo unspecified) | > 50.7
22 | Cc1ccc(Cn2c(CCCO)nc3ccccc32)cc1 | 34.5 (≈ 123 µM)
23 | CN(C(=O)CSc1ncnc2ccccc12)C1CCCCC1 | 45.4 (≈ 144 µM)
24 | COC(=O)C(CO)Nc1ncnc2onc(-c3ccc(F)cc3)c12 (stereo unspecified) | > 49.8
25 | O=C(NCc1nc(-c2ccc(Cl)cc2)no1)c1ccco1 | 9.4 (≈ 31 µM)

Row | Structure (SMILES) | solubility kinetic [µg/mL]
26 | C#CC(CC)(CC)NC(=O)c1ccc(Br)s1 | 18.6 (≈ 62 µM)
27 | Cc1ccc(C(=O)Nc2cccc3cccnc23)cc1C | < 0.3
28 | O=C(Nc1cccc(Cl)c1)C1COc2ccccc2O1 (stereo unspecified) | 3.1 (≈ 10.7 µM)
29 | O=S(=O)(Nc1ncccn1)c1ccc(Cl)cc1 | 40.1 (≈ 149 µM)
30 | O=C(NCc1ccccc1)c1ccc(CSc2ccccc2)o1 | 11.1 (≈ 34.3 µM)
31 | CCOC(=O)c1cc(NC(=O)N(C)C2CCCCC2)c(C)nc1C | > 50
32 | CCCn1nc(Oc2nc(N(C)C)nc(N(C)C)n2)ccc1=O | > 47.9
33 | COc1ccc(C(=O)N/C(=C\c2ccco2)C(=O)OCc2ccco2)cc1 | > 55.1
34 | CN1CCc2c(OCc3ccc(F)cc3)cccc2C1=O | 36.8 (≈ 129 µM)
35 | COc1ccc2oc(=O)c(C(=O)NC(C)c3ccccc3)cc2c1 (stereo unspecified) | < 0.7
36 | CSc1nc2sc3c(c2c(=S)[nH]1)CC(C)(C)OC3 | 10.6 (≈ 35.5 µM)
37 | Cc1ccc(NC(=O)c2cccnc2)cc1S(=O)(=O)N(C)C | > 47.9
38 | Fc1ccc(OCCCn2ccnc2)cc1 | 23.3 (≈ 106 µM)
39 | CC(=O)c1ccc(NC(=O)C(Cc2ccccc2)n2cccc2)cc1 (stereo unspecified) | 1.6 (≈ 4.81 µM)
40 | Cc1ccc(-c2csc(NC(=O)c3ccccc3F)c2C(=O)O)cc1 | > 53.3
41 | O=C1CSC(c2ccc(F)cc2)N1c1c(F)cccc1F (stereo unspecified) | 31.2 (≈ 101 µM)
42 | COc1ccccc1C(=O)NC(CCSC)C(=O)Nc1ccc(C)c(S(=O)(=O)N2CCOCC2)c1 (stereo unspecified) | 19.2 (≈ 36.8 µM)
43 | CCCN1CCN(S(=O)(=O)c2cn(C)nc2C)CC1 | > 43
44 | COc1ccc(OC)c(CN2CCN(C(=O)CNC(=O)c3ccccc3F)CC2)c1 | 59.9 (≈ 144 µM)
45 | O=C(NCC(=O)N1CCN(C/C=C/c2ccccc2)CC1)c1ccc(Br)cc1 | 15.4 (≈ 34.8 µM)
46 | Cn1c(N)c(C(=O)CSc2nnc(C3CC3)n2-c2ccccc2)c(=O)[nH]c1=O | > 59.8
47 | O=C(CCC1CCCN(C(=O)c2ccco2)C1)NCc1ccccc1F (stereo unspecified) | > 53.8
48 | CCOC(=O)c1c(C)nc(C)c(C(=O)OCC)c1-c1ccco1 | > 47.6
49 | O=c1[nH]c2ccccc2nc1C(F)(F)F | > 32.1
50 | O=C(O)c1cccc([N+](=O)[O-])c1C(=O)Nc1ccc2ccccc2c1 | 35.4 (≈ 105 µM)

The remaining lines, values ahead:

Row | solubility kinetic [µg/mL] | Structure (SMILES)
51 | 39.8 (≈ 118 µM) | CC(C)CN1CCCC(N2CCN(c3cccc(Cl)c3)CC2)C1 (stereo unspecified)
52 | > 32.6 | CC(Cc1c[nH]c2ccccc12)NC(N)=O (stereo unspecified)
53 | > 45.5 | N#CC1(NC(=O)COC(=O)c2nccnc2N)CCCCC1
54 | > 42.6 | Cc1ccsc1CNCC(O)c1ccccc1.Cl (stereo unspecified)
55 | 17.7 (≈ 77.9 µM) | Nc1ccc(-c2nc3ccccc3s2)cn1
56 | > 46.3 | COc1ccc(NC(=O)Cn2c(C)csc2=O)c(OC)c1
57 | > 41.2 | O=C(CCC(=O)c1cccs1)NCc1ccncc1
58 | 40.2 (≈ 111 µM) | O=C(CSc1nc(O)c(Cc2ccccc2)c(=O)[nH]1)N1CCOCC1
59 | 24.7 (≈ 96.7 µM) | COc1ccccc1CNC(=O)Cc1ccccc1
60 | > 45.8 | Cc1nnc(-c2cnn(C)c2N)n1CCCN1CCOCC1
61 | 1.5 (≈ 3.25 µM) | O=C(NC1CCCCC1)c1cc(S(=O)(=O)N2CCN(c3ccccc3)CC2)ccc1Cl
62 | > 43.7 | COc1cccc(NC(=O)COC(=O)C2CCCCC2)c1
63 | > 37.1 | Cc1nc([N+](=O)[O-])cn1CC(O)c1ccccc1 (stereo unspecified)
64 | > 40.3 | CCc1nnc(NC(=O)CN2CCCC(C)C2)s1 (stereo unspecified)
65 | > 44.3 | CC1CN(C(=S)Nc2cccc([N+](=O)[O-])c2)CC(C)O1 (stereo unspecified)
66 | 37.9 (≈ 113 µM) | O=[N+]([O-])c1cc(C(F)(F)F)cc([N+](=O)[O-])c1N1CCCNCC1
67 | 2.4 (≈ 7.4 µM) | Cc1ccc(NC(=O)C2CCN(c3nc(C)cc(C)n3)CC2)cc1
68 | < 0.4 | COc1ccccc1C1CCN(c2ccc([N+](=O)[O-])c(OC)c2)CC1
69 | > 41 | O=C(/C=C/c1ccc(F)cc1)NCCCn1ccnc1
70 | < 0.7 | Cc1cc2c(=O)oc(-c3ccc(Br)cc3)nc2s1
71 | 9.2 (≈ 29.5 µM) | COC(=O)c1cccc(N2C(=O)C3C4C=CC(CC4)C3C2=O)c1 (stereo unspecified)
72 | 57.2 (≈ 147 µM) | CCOC(=O)N1CCN(C(=O)COC(=O)c2cc(Cl)cc(Cl)c2)CC1

Row | solubility kinetic [µg/mL] | Structure (SMILES)
73 | 59.1 (≈ 119 µM) | CS(=O)(=O)N1Cc2ccccc2CC1C(=O)OCC(=O)NCCc1ccc(S(N)(=O)=O)cc1 (stereo unspecified)
74 | 22.2 (≈ 74.7 µM) | CC(=O)N/C(=N/c1nc(C)cc(C)n1)Nc1cccc(C)c1
75 | < 0.3 | CC(C)NC(=O)c1c(O)c2cccc3c2n(c1=O)CCC3
76 | > 45.1 | CC(NC(=O)CN(C)Cc1cccc(F)c1)c1ccccc1 (stereo unspecified)
77 | 63.3 (≈ 140 µM) | CC(=O)NS(=O)(=O)c1ccc(NC(=O)C(C)NS(=O)(=O)/C=C/c2ccccc2)cc1 (stereo unspecified)
78 | 1.4 (≈ 4.41 µM) | Cn1c(COc2ccccc2Br)nc2ccccc21
79 | 1.3 (≈ 3.95 µM) | Cc1ccc(C(=O)Nc2cccc(-c3nc4ncccc4o3)c2)cc1
80 | 7 (≈ 20.8 µM) | O=c1nc(SCc2cccc(C(F)(F)F)c2)nc2ccccn12
81 | 46.2 | CC1CN(C)C(C)C/C1=N/Oc1ccccc1[N+](=O)[O-].Cl (stereo unspecified)
82 | > 47.6 | O=C(O)c1ccc(N2C(=O)c3cccc4cccc(c34)C2=O)cc1
83 | 64.9 (≈ 131 µM) | C=C[C@]1(C)C[C@@H](OC(=O)CSCCN(CC)CC)[C@]2(C)C(C)CC[C@]3(CCC(=O)[C@H]32)[C@@H](C)[C@@H]1O (stereo partly specified)
84 | 6.6 (≈ 21.3 µM) | Cc1cccc(Oc2c([N+](=O)[O-])c(=O)n(C)c3ccccc23)c1
85 | > 49.3 | CC1CCN(C(=O)c2ccccc2NC(=O)c2cccs2)CC1
86 | 49 (≈ 145 µM) | CCNS(=O)(=O)c1ccc(CCC(=O)N2CCC(C)CC2)cc1
87 | 0.6 (≈ 2.01 µM) | Cc1cc(C)c(NC(=O)Nc2ccc3c(c2)OCO3)c(C)c1
88 | 1 (≈ 3.34 µM) | CCCOc1ccc(C(=O)Nc2ccc3c(c2)OCO3)cc1
89 | 1.5 (≈ 4.02 µM) | CCOC(=O)c1c(NC(=O)Nc2ccc(C)cc2)sc2c1CCN(C)C2
90 | 46.7 (≈ 149 µM) | C(=Nc1cccc2c(N=Cc3ccco3)cccc12)c1ccco1
91 | > 44.6 | Cc1cccc(C(=O)NCCCNC(=O)c2ccccn2)c1
92 | > 62.2 | CCOc1ccc(NC(=O)CN(C)C(=O)C2COc3ccccc3O2)cc1OCC (stereo unspecified)
93 | 41.9 (≈ 144 µM) | CCSC1=C(C#N)C(CC(C)C)C2=C(CCCC2=O)N1 (stereo unspecified)
94 | > 44.6 | CCN1CCN(CCC(=O)Nc2ccc(F)c(F)c2)CC1

Row | solubility kinetic [µg/mL] | Structure (SMILES)
95 | 12.7 (≈ 37.2 µM) | Cn1cccc1C(=O)OCC(=O)N1c2ccccc2NC(=O)C1(C)C
96 | < 0.3 | Cc1ccc(C(NC(=O)Nc2ccccn2)C(Cl)(Cl)Cl)cc1F (stereo unspecified)
97 | > 45.7 | O=C(NCCc1ccccc1)c1ccc(Cl)cc1[N+](=O)[O-]
98 | 38.3 (≈ 79.5 µM) | COc1ccc(Cl)cc1N1C(=O)CC(N2CCN(S(=O)(=O)c3ccccc3F)CC2)C1=O (stereo unspecified)
99 | > 45.5 | Cc1cc(NC(=O)C2CC(=O)N(c3ccc(F)cc3)C2)no1 (stereo unspecified)
100 | > 51.6 | Cc1cc(-n2c(C)cc(C(=O)CN3C(=O)C(=O)N(C)C3=O)c2C)no1
101 | < 0.3 | Cc1ccccc1COc1ccc(/C=C(\C#N)C(N)=O)cc1
102 | < 0.3 | CCCC(=O)N=c1sc2c(OC)ccc(OC)c2n1C
103 | 1.8 (≈ 5.35 µM) | CC(=O)c1ccc(NC(=O)COC(=O)c2c[nH]c3ccccc23)cc1
104 | 2.2 (≈ 6.78 µM) | Cc1ccc(NC(=O)C2CCCN(c3nccc(C)n3)C2)c(C)c1 (stereo unspecified)
105 | 20.6 (≈ 72.7 µM) | O=[N+]([O-])c1sccc1CS(=O)(=O)c1ccccc1
106 | < 0.1 | CC(C)Nc1nc(-c2ccncc2)nc(-c2ccccc2)c1C#N
107 | 37.2 (≈ 133 µM) | COc1cc([N+](=O)[O-])ccc1NC(=O)CN1CCCC1
108 | > 42.1 | O=C(c1ccsc1)N1CCCC(N2CCOCC2)C1 (stereo unspecified)
109 | 37 (≈ 131 µM) | Cc1ccc(-c2nc(C#N)c(NCC3CCCO3)o2)cc1 (stereo unspecified)
110 | 33.1 (≈ 112 µM) | CCOc1ccccc1NC(=O)N1CCc2ccccc2C1
111 | > 50.6 | CCOC(=O)N1CCC(NS(=O)(=O)c2ccc(C#N)cc2)CC1
112 | 52.4 (≈ 131 µM) | COc1ccccc1N1CCN(CCCCN2C(=O)C3CCCCN3C2=O)CC1 (stereo unspecified)
113 | > 31.7 | CN=C(Nc1cccnc1)c1ccccc1
114 | > 47 | CC(=O)Nc1ccc(OCCOc2ccccc2C(C)=O)cc1
115 | 53.3 (≈ 145 µM) | CC(Oc1cccc(Cl)c1)C(=O)NCc1ccc(S(N)(=O)=O)cc1 (stereo unspecified)
116 | 52.2 (≈ 124 µM) | CC(C)C(=O)N1CCN(c2ccccc2NC(=O)c2ccc(Br)o2)CC1
